The values that follow come from patent US20240408125A1, “COMPOSITION COMPRISING POLYGALATENOSIDE AS ACTIVE INGREDIENT FOR PREVENTION OR TREATMENT OF CANCER” (HOSEO UNIVERSITY ACADEMIC COOPERATION FOUNDATION, priority 2021, published 2024).

Common to all, as to format: cell-based, Mouse
Assay [1] has as its system B16-F10 melanoma cells. Put plainly: Viable cell number by trypan blue staining and hemocytometer. Particulars: FIG. 4. How it is done:
(§1) B16-F10 melanoma cells were cultured under conditions of 36.5° C. and 5% CO2 using a Dulbecco's modified Eagle's medium supplemented with 10% (v/v) fetal bovine serum and 1% (v/v) penicillin-streptomycin.
Next, in order to measure changes in cell number, B16-F10 cells were cultured for 12 hours, and then treated with polygalatenoside A at concentrations of 0, 0.1, 0.3, 1, 3, and 10 μM for 72 hours, respectively. The cells were collected every 24 hours, stained with trypan blue, and the number of viable cells was measured using a hemocytometer, and the results were shown in FIG. 4.

The subject of a further assay is NOX2 protein. Put plainly: NOX2 protein expression by Western blot with densitometry relative to β-actin. The settings on record: B16-F10 cells, FIG. 2. How it is done:
as §1
B16-F10 melanoma cells were cultured for 12 hours, and then treated with polygalatenoside A at concentrations of 0, 0.1, 0.3, 1, 3, and 10 μM for 24 hours, respectively. Thereafter, the cells were washed twice with PBS, and collected, and proteins were recovered by lysing the cells with a radioimmunoprecipitation assay (RIPA) buffer containing phenylmethylsulfonyl fluoride (PMSF). 50 μg of proteins was separated by sodium dodecyl sulfate poly-acrylamide gel electrophoresis (SDS-PAGE) and then transferred to a polyvinylidene fluoride (PVDF) membrane. The membrane was treated with a tris-buffered saline (TBS; pH 7.6) containing 5% (w/v) skim milk, 0.05% (v/v) tween-20, and 0.01% (w/v) sodium azide at 25° C. for 1 hour. The membrane was washed three times with TBST (TBS containing 0.05% (v/v) tween-20) and treated with an anti-NOX2 primary antibody and a horse radish peroxidase (HRP)-conjugated secondary antibody. The protein levels were visualized using enhanced chemiluminescence (ECL) and an X-ray film. The expression level of NOX2 protein compared to β-actin was shown in FIG. 2 through a densitometry of ImageJ software.
A general note: Immunoblotting shows a protein as a band on a membrane.

In assay [2] the test system is B16-F10 melanoma cells. In words: WST8 cell viability assay. The settings on record: 3 μM for 48 hours, WST8, absorbance at 450 nm, FIG. 3. How it is done: as §1
B16-F10 melanoma cells were cultured in a 96-well cell culture plate for 12 hours, and then treated with polygalatenoside A at concentrations of 0, 0.1, 0.3, 1, 3, and 10 μM for 48 hours, respectively. The medium was treated with a WST8 Cell Viability Assay Reagent to a concentration of 10% (v/v) and cultured for 2 hours. Thereafter, cell viability was confirmed by measuring absorbance at 450 nm using a microplate reader, and the results were shown in FIG. 3.
A general note: Formazan colour is commonly taken as a measure of viable cells.

Take `O=C(OCC1OC(OC2COC(CO)[C@@H](O)C2O)C(O)C(O)C1O)c1ccccc1` (some centres unmarked) [polygalatenoside A, Polygalatenoside A]: in the assay on B16-F10 melanoma cells [1] (3 μM up to 72 hours, compared with the other concentrations), the “growth inhibition effect (number of viable cells)” value was “most significantly shown”. Also, the “growth of melanoma cells (number of viable cells)” value with B16-F10 melanoma cells [1] (0.1-10 μM up to 72 hours, counted every 24 hours) is on record as “inhibited”. The “expression of NOX2 compared to untreated control group (fold)” value in the assay on NOX2 protein (3 μM for 24 hours) was “about 1.4 times”. The “expression of NOX2 compared to untreated control group” value in the assay on NOX2 protein (0.1-10 μM for 24 hours) is “increased”. Also, the “cell viability (cell death effect)” value in the assay with B16-F10 melanoma cells [2] was “cell death effect was exhibited”.
